Reference: paper PMC4465272 (eNeuro, 2015)
Entries after “also recorded” stand apart in the source; their conditions may differ. Read-outs that look alike come from different tables or passages of the source.

Key:
animal pain models = details: in vivo, iv; cited from earlier work
[1] = system: eEPSCs in the dorsal horn of rat spinal cord; details: cited from earlier work
[2] = system: CaV current in rat sensory neurons (DRG); assay: cells; type: cell-based, rat (adult male Sprague Dawley); details: for inhibition at 30 µM: Rattus norvegicus, Neuron
[3] = system: model of peripheral neuropathy in the rat; details: ref Franek et al., 2004; cited from earlier work
Description: Furthermore, GABAB receptor activation inhibits the activity of N-type CaV channels (CaV2.2) and inhibition of N-type channels expressed by nocicept ...

Row | Compound | effect on neuropathic pain (animal pain models) | effect on eEPSCs / EPSPs in dorsal horn [1] | sensory neurons with CaV current inhibited by baclofen [2] [%] | voltage dependence of CaV current inhibition [2] | inhibition at 30 µM ([2]; read-out: CaV current inhibition in the neuron with the largest Vc1.1 and RgIA response) [%] | inhibition at 30 µM ([2]; read-out: CaV current inhibition in the neuron with the largest baclofen response) [%] | inhibition at 30 µM ([2]; read-out: baclofen-induced CaV current inhibition in seven other neurons) [%] | inhibition at 30 µM ([2]; read-out: postpulse CaV current inhibition) [%] | inhibition at 30 µM ([2]; read-out: prepulse CaV current inhibition) [%] | analgesic effect [3]
1 | ziconotide [reference compound] | did not decrease neuropathic pain |  |  |  |  |  |  |  |  | 
2 | NCC(CC(=O)O)c1ccc(Cl)cc1 (stereo not shown) [baclofen, reference compound] |  | strongly inhibited; also recorded: almost completely blocked | 95 | voltage-dependent | 22 | 34 | 20 to 24 | 12 ± 5.5 | 19.2 ± 6.8 | analgesic effects
